Results from paper PMC6193938, “Characterization of a novel AICARFT inhibitor which potently elevates ZMP and has anti-tumor activity in murine models” (Scientific Reports, 2018).

Key:
[1] = molecular target: T1, MLK1 (Homo sapiens, UniProt P80192); test: CEREP protein kinase assay; type: biochemical
T1 construct: purchased CEREP Panlabs (Eurofins)

[2] = test system: cell lines of Table 1; test: MS detection of ZMP in cultured cells, average over cell lines; type: cell-based; conditions: Homo sapiens
Protocol: Cells lines were acquired from cell banks, see supplemental material, grown using the cell banks recommended culture conditions (Supplemental Table 3). In some experiments noted “low folate” the cells were washed and grown in folate free RPMI-1640 media (Gibco #27016-021) supplemented with 5 ml 1 M Hepes, 5 ml 100 mM Na pyruvate, 2.5 mg/ml glucose and 10% defined FBS (Hyclone #SH30070) per 500 mL media for 5–7 days to deplete intracellular folate levels prior to the start of the experiment. Where noted, cells were maintained in complete “high folate” RPMI-1640 media (ATCC #30-2001) with 10% defined FBS to contrast with the low folate conditions.
ZMP was detected in cultured cells via mass spec analysis. Cells were plated in 96-well plates at 25,000 cells per well in 100 µL with either high or low folate RPMI media and incubated overnight at 37 °C with 5% CO2. Cells were treated with inhibitor compounds for 16 hours, 0.5% DMSO final concentration. […]
ZMP, AICAr and dUMP were detected using positive ion TurboIonSpray® multiple reaction monitoring mode and the data were processed with AB Sciex MultiQuant™. Back-calculated ZMP concentrations were fit to a four-parameter logistic equation using ACTIVITYBASE 4.0 to determine EC50 values relative to the maximum observed metabolite levels.

[3] = molecular target: T2, TNK1 (Homo sapiens, UniProt Q13470); test: CEREP protein kinase assay; type: biochemical
T2 construct: purchased CEREP Panlabs (Eurofins)
T2 sequence (Q13470 1-666): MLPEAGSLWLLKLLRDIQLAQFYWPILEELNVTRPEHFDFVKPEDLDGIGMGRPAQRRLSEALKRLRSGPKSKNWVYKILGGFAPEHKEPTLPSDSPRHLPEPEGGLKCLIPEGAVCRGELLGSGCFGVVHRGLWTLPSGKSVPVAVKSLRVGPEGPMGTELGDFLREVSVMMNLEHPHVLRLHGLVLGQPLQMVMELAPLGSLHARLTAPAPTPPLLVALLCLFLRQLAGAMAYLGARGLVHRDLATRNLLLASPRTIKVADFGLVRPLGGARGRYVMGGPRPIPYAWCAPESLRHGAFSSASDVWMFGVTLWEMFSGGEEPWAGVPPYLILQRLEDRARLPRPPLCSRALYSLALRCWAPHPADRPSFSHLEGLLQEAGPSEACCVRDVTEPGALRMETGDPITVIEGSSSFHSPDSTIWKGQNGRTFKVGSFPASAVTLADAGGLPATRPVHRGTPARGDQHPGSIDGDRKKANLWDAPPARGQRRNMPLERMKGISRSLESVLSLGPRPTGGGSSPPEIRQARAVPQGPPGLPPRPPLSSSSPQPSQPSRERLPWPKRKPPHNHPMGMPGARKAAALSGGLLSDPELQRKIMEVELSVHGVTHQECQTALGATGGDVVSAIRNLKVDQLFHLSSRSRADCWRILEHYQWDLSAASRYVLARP

[4] = molecular target: T3, FMS (Homo sapiens, UniProt P07333); test: CEREP protein kinase assay; type: biochemical
T3 construct: purchased CEREP Panlabs (Eurofins)

[5] = molecular target: T4, EPHB2 (Homo sapiens, UniProt P29323); test: CEREP protein kinase assay; type: biochemical
T4 construct: purchased CEREP Panlabs (Eurofins)
T4 sequence (P29323 19-1055): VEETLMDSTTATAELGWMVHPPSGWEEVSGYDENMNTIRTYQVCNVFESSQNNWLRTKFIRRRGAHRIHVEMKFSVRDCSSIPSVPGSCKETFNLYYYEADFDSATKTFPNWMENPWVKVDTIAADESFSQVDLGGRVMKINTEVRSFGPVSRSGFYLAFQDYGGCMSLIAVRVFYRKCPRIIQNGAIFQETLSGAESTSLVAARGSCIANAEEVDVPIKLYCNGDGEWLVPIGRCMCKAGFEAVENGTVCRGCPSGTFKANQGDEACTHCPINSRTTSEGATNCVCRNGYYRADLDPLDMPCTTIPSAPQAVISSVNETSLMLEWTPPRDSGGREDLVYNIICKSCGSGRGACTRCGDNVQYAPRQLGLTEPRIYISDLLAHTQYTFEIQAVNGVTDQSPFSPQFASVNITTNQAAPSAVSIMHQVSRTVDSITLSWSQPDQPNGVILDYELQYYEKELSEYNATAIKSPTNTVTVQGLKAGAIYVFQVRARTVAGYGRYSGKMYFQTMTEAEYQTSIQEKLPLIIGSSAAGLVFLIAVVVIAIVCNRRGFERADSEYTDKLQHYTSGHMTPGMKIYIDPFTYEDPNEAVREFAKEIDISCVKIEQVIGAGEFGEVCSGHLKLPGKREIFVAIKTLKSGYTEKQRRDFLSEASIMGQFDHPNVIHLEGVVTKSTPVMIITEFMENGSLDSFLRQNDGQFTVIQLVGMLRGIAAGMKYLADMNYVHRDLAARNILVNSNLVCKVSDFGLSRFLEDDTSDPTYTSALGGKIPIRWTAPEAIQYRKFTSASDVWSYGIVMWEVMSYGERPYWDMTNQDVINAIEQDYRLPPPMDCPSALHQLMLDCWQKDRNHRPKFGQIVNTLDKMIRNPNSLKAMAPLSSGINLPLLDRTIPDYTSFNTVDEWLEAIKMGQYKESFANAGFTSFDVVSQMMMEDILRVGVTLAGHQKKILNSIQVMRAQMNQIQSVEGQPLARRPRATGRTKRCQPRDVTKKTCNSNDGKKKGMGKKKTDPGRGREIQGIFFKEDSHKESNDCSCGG

T3 sequence (P07333 20-972): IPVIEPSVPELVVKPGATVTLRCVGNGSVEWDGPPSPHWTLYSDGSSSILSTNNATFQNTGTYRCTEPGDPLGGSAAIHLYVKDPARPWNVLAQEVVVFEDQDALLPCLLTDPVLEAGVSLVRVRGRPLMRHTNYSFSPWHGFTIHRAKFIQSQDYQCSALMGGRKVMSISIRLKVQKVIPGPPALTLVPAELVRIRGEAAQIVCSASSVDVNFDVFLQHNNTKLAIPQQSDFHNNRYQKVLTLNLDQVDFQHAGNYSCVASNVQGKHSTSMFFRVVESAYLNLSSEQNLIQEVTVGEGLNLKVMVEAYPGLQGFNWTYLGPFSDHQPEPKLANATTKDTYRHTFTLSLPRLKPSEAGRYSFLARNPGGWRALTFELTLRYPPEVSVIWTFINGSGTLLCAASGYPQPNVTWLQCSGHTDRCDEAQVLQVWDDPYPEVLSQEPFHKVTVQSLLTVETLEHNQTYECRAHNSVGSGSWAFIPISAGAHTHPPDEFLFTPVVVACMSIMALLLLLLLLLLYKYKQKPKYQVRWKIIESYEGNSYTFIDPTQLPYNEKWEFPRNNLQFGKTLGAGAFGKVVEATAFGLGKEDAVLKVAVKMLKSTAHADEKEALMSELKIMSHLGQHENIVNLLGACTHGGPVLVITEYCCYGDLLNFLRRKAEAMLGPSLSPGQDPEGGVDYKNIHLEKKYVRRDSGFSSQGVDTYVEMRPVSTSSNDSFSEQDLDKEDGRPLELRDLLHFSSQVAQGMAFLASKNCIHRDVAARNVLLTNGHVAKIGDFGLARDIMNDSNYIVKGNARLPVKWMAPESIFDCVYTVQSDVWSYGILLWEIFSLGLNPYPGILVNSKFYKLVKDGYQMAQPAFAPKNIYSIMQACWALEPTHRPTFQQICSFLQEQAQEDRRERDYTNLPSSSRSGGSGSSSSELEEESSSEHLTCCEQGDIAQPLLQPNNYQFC
T1 sequence (P80192 whole entry): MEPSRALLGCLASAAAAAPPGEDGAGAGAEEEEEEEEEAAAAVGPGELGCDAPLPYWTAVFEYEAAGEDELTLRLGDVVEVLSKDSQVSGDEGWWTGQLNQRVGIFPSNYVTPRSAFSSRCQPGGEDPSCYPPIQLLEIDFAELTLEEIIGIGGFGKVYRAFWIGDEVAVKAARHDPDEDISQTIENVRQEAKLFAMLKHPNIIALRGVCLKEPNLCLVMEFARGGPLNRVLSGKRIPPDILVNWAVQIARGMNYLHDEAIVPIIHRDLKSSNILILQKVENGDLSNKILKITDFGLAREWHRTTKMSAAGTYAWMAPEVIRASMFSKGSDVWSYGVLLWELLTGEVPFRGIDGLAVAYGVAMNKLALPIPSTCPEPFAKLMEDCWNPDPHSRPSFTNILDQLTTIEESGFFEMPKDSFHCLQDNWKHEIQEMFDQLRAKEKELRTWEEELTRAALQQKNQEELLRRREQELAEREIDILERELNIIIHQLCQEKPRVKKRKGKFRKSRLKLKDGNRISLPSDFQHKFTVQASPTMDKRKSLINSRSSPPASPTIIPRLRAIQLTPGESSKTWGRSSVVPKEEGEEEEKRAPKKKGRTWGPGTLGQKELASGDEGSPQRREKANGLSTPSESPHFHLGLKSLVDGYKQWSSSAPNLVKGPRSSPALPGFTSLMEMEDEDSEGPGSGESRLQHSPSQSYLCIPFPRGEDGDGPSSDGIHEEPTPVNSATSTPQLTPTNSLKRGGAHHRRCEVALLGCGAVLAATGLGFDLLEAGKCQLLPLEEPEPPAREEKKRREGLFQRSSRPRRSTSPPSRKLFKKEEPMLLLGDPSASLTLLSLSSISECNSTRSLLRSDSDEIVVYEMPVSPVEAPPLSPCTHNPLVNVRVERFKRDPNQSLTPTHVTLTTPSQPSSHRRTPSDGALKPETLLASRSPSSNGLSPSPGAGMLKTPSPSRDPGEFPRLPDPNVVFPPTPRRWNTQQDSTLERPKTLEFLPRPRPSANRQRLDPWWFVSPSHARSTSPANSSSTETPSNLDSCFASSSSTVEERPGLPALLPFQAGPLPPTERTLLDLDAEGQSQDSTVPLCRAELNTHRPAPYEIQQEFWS

SMILES: O=c1[nH]ccc2cc(F)c(NS(=O)(=O)c3ccc(N4CC[C@@H](O)C4)s3)cc12 [LSN3213128, N-(6-Fluoro-1-oxo-1,2-dihydroisoquinolin-7-yl)-5-[(3R)-3-hydroxypyrrolidin-1-yl]thiophene-2-sulfonamide]
- inhibition at 0.2 µM ([1]; @ 0.2 uM): -7.95%
- inhibition at 2 µM ([1]; @ 2 uM): 2.73%
- inhibition at 20 µM ([1]; @ 20 uM): 3.99%
- EC50 ([2]; low folate media, 12 cell lines): 0.0049 ± 0.0026 µM
- EC50 ([2]; normal RPMI, 8 cell lines): 1.21 µM
- inhibition at 0.2 µM ([3]; @ 0.2 uM): -11.5%
- inhibition at 2 µM ([3]; @ 2 uM): -5.26%
- inhibition at 20 µM ([3]; @ 20 uM): -3.7%
- inhibition at 0.2 µM ([4]; @ 0.2 uM): 2.06%
- inhibition at 2 µM ([4]; @ 2 uM): 19.2%
- inhibition at 20 µM ([4]; @ 20 uM): 48.4%
- inhibition at 0.2 µM ([5]; @ 0.2 uM): -14.3%
- inhibition at 2 µM ([5]; @ 2 uM): 8.96%
- inhibition at 20 µM ([5]; @ 20 uM): 12%
